Assay results from PubChem BioAssay (NCI).
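Growth conditions: 96-well plates. Treatment: test compound, 48 hours, 5 concentrations. Analysis: linear interpolation between bracketing concentrations; unreached endpoints set to highest concentration. At the TGI there is no net growth.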

Tests used:
Experiment in all cases: NCI tumour cell line growth inhibition, 48 h
DMS 114 small cell lung = test system: DMS 114 small cell lung
XF 498 CNS = test system: XF 498 CNS
786-0 renal = test system: 786-0 renal
MDA-N = test system: MDA-N
P388 leukemia = test system: P388 leukemia
P388/ADR leukemia = test system: P388/ADR leukemia
SN12K1 renal = test system: SN12K1 renal
RXF-631 renal = test system: RXF-631 renal

Compound: CN(CCO)/N=N/c1nc[nH]c1C(N)=O
- TGI (DMS 114 small cell lung): > 100 µM
- TGI (XF 498 CNS): > 100 µM

Compound: C/C(=N\NC(=S)Nc1ccc(Cl)cc1)c1nc2ncccc2[nH]1
- TGI (786-0 renal): 29.7 µM
- TGI (MDA-N): 23.1 µM

Compound: Cc1ncc(CO)c(C=NCCCCCCN=Cc2c(CO)cnc(C)c2O)c1O
- TGI (786-0 renal): > 100 µM
- TGI (MDA-N): > 100 µM

Compound: NC(=S)N/N=C/c1ccc(OC(=O)COc2ccccc2Cl)cn1
- TGI (P388 leukemia): 13.4 µM
- TGI (P388/ADR leukemia): 20.7 µM
- TGI (SN12K1 renal): > 100 µM
- TGI (XF 498 CNS): > 92 µM

Compound: COc1cc(C2S/C(=C/c3ccccc3)C(=O)N2c2ccccc2Cl)cc(OC)c1OC (centres undefined)
- TGI (MDA-N): 84.6 µM

Compound: O=C(O)CN=c1c2ccccc2n(O)c2ccccc12
- TGI (786-0 renal): > 100 µM
- TGI (DMS 114 small cell lung): > 100 µM
- TGI (RXF-631 renal): > 100 µM

Compound: BrC1=CN2C[n+]3cc(Br)c4ccccc4c3N=C2c2ccccc21
- TGI (MDA-N): 21.4 µM

Compound: COc1cc(Cc2ccc3c(c2C#N)N(C)c2ccccc2S3)cc(OC)c1OC
- TGI (DMS 114 small cell lung): > 100 µM
- TGI (XF 498 CNS): > 100 µM

Compound: C/C([O-])=C(/c1nc(-c2ccc([N+](=O)[O-])o2)no1)[n+]1cc(C)ccc1C
- TGI (DMS 114 small cell lung): 38.9 µM
- TGI (P388 leukemia): > 100 µM
- TGI (P388/ADR leukemia): > 100 µM
- TGI (SN12K1 renal): 28.6 µM
- TGI (XF 498 CNS): 21.1 µM

Compound: CCOC(=O)C(=O)Nc1cccc(C)c1C
- TGI (DMS 114 small cell lung): > 100 µM
- TGI (XF 498 CNS): > 100 µM
